Here are results for 21 molecules from US12410187B2, “Fused tricyclic compounds useful as anticancer agents” (ASTRAZENECA AB, priority 2019, dated 2025).

T1 sequence (P01116 1-188 isoform P01116-2 G12C): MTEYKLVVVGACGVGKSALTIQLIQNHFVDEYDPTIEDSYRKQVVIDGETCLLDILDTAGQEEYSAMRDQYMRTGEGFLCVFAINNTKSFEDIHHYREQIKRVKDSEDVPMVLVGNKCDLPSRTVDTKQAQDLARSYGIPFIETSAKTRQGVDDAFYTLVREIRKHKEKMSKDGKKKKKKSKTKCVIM

One assay addresses T1, KRasG12C (Homo sapiens, UniProt P01116, G12C).
T1 construct: biotin (biotinylated); made in house
The assay is described as follows: KRasG12C functional assay (HTRF/FRET nucleotide exchange and Raf RBD binding). The class given is biochemical. The conditions noted are these: GDP loaded biotinylated KRasG12C, samples incubated for 4 hrs, FRET readout; single experiment or average of two or more; read-out: KRasG12C functional assay IC50. As for the experimental part: All enzyme and substrate solutions were prepared in assay buffer containing 20 mM HEPES (pH 7.5), 5 mM MgCl2, 150 mM NaCl, and 0.01% Tween 20. […] In a separate mix 20 nM GST-Raf Ras binding domain (GST-Raf RBD, purified in house) and 4 μg/ml anti-GST XL665 antibody (Cisbio) was prepared in assay buffer containing 50 mM Potassium Fluoride and 0.05 mg/ml BSA and equilibrated for 4 hours before adding 0.6 μM Guanosine 5′-[γ-thio]triphosphate (GTPγS, Sigma) and 0.08 μM SOS (purified in house). 5 μl of the GST-RAF RBD mix was then dispensed into each well of the assay plate. […] This is detected simultaneously via the specific binding interaction between active GTPγS KRas^G12C with GST-Raf RBD which brings the europium and XL665 into close proximity enabling an increased FRET signal to be detected on a Pherastar (BMG) plate reader equipped with the HTRF filter module. […] IC50 values were calculated from normalised dose-response response FRET data curve fitted in Genedata screener (Basel, Switzerland).
A general note: In TR-FRET formats the signal depends on donor and acceptor labels being close together.
`C=CC(=O)N1CCN2C(=O)c3cc(F)c(-c4c(O)cccc4F)c(Cl)c3OC[C@H]2C1` (single isomer, unassigned) [Example 12]: the IC50 (in general, the point on the concentration scale where inhibition reaches its midpoint) is 25.2 µM.
On the same count and under the same terms, the value for `C=CC(=O)N1CCN2Cc3c(O)c(Cl)c(-c4c(O)cccc4F)c(Cl)c3OC[C@H]2C1` (single isomer, unassigned) [Example 13] was 0.066 µM; that for `C=CC(=O)N1CCN2Cc3c(O)c(Cl)c(-c4c(O)cccc4F)c(Cl)c3OC[C@H]2C1` (single isomer, unassigned) [Example 14] was 8.19 µM; that for `C=CC(=O)N1CCN2Cc3cc(F)c(-c4c(C)ccc5[nH]cnc45)c(Cl)c3OC[C@H]2C1` (single isomer, unassigned) [Example 18] was 28.7 µM.
Same read-out and setting: the value for `C=CC(=O)N1CCN2Cc3cc(F)c(-c4c(C)ccc5[nH]cnc45)c(Cl)c3OC[C@H]2C1` (single isomer, unassigned) [Example 19] was 0.146 µM; that for `C=CC(=O)N1CCN2C(=O)c3cc(Cl)c(-c4c(O)cccc4F)c(Cl)c3OC[C@H]2C1` (single isomer, unassigned) [Example 20] was 0.043 µM; that for `C=CC(=O)N1CCN2C(=O)c3cc(Cl)c(-c4c(O)cccc4F)c(Cl)c3OC[C@H]2C1` (single isomer, unassigned) [Example 21] was 12.9 µM.
For `C=CC(=O)N1CCN2Cc3cc(C#N)c(-c4c(O)cccc4F)c(Cl)c3OC[C@H]2C1` (single isomer, unassigned) [Example 22], the IC50 stood at 2.58 µM.
Same read-out and setting: the value for `C=CC(=O)N1CCN2Cc3cc(C#N)c(-c4c(O)cccc4F)c(Cl)c3OC[C@H]2C1` (single isomer, unassigned) [Example 23] was 0.105 µM.
The same measure, in the same setting: the value for `C=CC(=O)N1CCN2C(=O)c3cc(C)c(-c4c(O)cccc4F)c(Cl)c3OC[C@H]2C1` (single isomer, unassigned) [Example 24] was 43.8 µM.
Turning to `C=CC(=O)N1CCN2C(=O)c3cc(C)c(-c4c(O)cccc4F)c(Cl)c3OC[C@H]2C1` (single isomer, unassigned) [Example 25], the IC50 worked out at 0.068 µM.
Same read-out and setting: the value for `C=CC(=O)N1CCN2Cc3cc(Cl)c(-c4c(O)cccc4F)c(Cl)c3OC[C@H]2C1` (single isomer, unassigned) [Example 26] was 1 µM.
In the case of `C=CC(=O)N1CCN2Cc3cc(F)c(-c4c(C)ccc5cc[nH]c(=O)c45)c(Cl)c3OC[C@H]2C1` (single isomer, unassigned) [Example 28], the concentration for half-maximal inhibition (IC50) was found to be 17 µM.
On the same count and under the same terms, the value for `C=CC(=O)N1CCN2Cc3cc(F)c(-c4c(C)ccc5cc[nH]c(=O)c45)c(Cl)c3OC[C@H]2C1` (single isomer, unassigned) [Example 29] was 0.164 µM; that for `C=CC(=O)N1CCN2Cc3cc(OC)c(-c4c(O)cccc4F)c(Cl)c3OC[C@H]2C1` (single isomer, unassigned) [Example 30] was 90.5 µM.
On the same count and under the same terms, the value for `C=CC(=O)N1CCN2Cc3cc(OC)c(-c4c(O)cccc4F)c(Cl)c3OC[C@H]2C1` (single isomer, unassigned) [Example 31] was 0.279 µM.
The same measure, in the same setting: the value for `C=CC(=O)N1CCN2C(=O)c3ccc(-c4c(C)ccc5[nH]ncc45)c(Cl)c3NC[C@H]2C1` (single isomer, unassigned) [Example 32] was 64.8 µM.

The same assay, now with this note: KRasG12C functional assay IC50, GDP loaded biotinylated KRasG12C, samples incubated for 4 hrs, FRET readout; single experiment or average of two or more.
The molecule `C=CC(=O)N1CCN2C(=O)c3ccc(-c4c(C)ccc5[nH]ncc45)c(Cl)c3OC[C@@H]2C1` (single isomer, unassigned) [Example 1] had an IC50 of 73 µM.
Still for that read-out and setting: the value for `C=CC(=O)N1CCN2C(=O)c3ccc(-c4c(C)ccc5[nH]ncc45)c(Cl)c3OC[C@@H]2C1` (single isomer, unassigned) [Example 2] was 4.5 µM; that for `C=CC(=O)N1CCN2C(=O)c3ccc(-c4c(C)ccc5[nH]ncc45)c(Cl)c3OC[C@H]2C1` (single isomer, unassigned) [Example 7] was 82 µM; that for `C=CC(=O)N1CCN2Cc3ccc(-c4c(C)ccc5[nH]ncc45)c(Cl)c3OC[C@H]2C1` (single isomer, unassigned) [Example 9] was 26 µM.
